Test results taken from patent US20250213593A1, “Use of Derivatives based on Sarsasapogenin Structure and Pharmaceutical Compositions thereof” (BEIJING PHYTOVENT PHARMACEUTICAL TECHNOLOGY CO., LTD., priority 2022, published 2025).

Key:
SOD^G93A transgenic mice [1] = test: Gait analysis of SOD^G93A mice; settings: 40 mpk from Day 60, tested at Week 19; vs model group
From the text: Gait analysis was a behavioral analysis method that tested motor dysfunction. The mice with motor dysfunction would have a significant reduction in stride length. Our experiments were divided into two groups, i.e., a model group and an administration group.

APOE−/− mutant B6J mice = test: Cardiovascular inflammation of APOE mutant mice fed with high-fat diets; type: in vivo, mouse; settings: oral gavage once every 2 days, high-fat diets 16 weeks
From the text: Experimental and analytical method: 6-week-old male APOE−/− mutant B6J mice and WT B6J mice were purchased and acclimatized in a feeding room for 2 weeks. When the mice were 8 weeks old, except for a Vehicle group and a WT group, the rest of the groups were given high-fat diets (Research Diets, D12492). When the mice were 9 weeks old, the Control group was given a 10% cyclodextrin solution, while the rest of the administration groups began to be grouped and administrated with different small molecule compounds (Embodiment 13B, Embodiment 33, Embodiment 36 and Embodiment 37) by oral gavage, at a frequency of once every 2 days. After being fed with high-fat diets for 16 weeks, the APOE mice were sacrificed and aortic arches were taken and dissected.

[2] = tested on: SARS-CoV-2 pseudovirus (HEK293T cells); type: cell-based
SOD^G93A transgenic mice [3] = test: Open field test of SOD^G93A mice; settings: 40 mpk from Day 60, Week 14 to Week 19; vs model group
Experimental: A mean moving speed was calculated in an open field, which is a behavioral analysis method to test motor dysfunction. The mice with motor dysfunction would have a significant reduction in mean moving speed. Our experiments were divided into three groups, i.e., a WT group, a model group and an administration group.

hippocampal neurons = test: L-cysteine-induced neuronal excitotoxicity; type: cell-based, SD rats; settings: compound 1 μM, 24 h before inducer
Summary of the method: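 Primary E18-19 SD rat hippocampal neurons at DIV19 pretreated 24 h with compound (final 1 μM; AP5 100 μM positive control, DMSO negative), then exposed to L-cystine 400 μM plus NaHCO3 10 mM for 18 h. Hoechst staining; total and dead neurons counted in 6 random fields per well.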

[4] = tested on: transgenic AD rat model (human APP mutant protein, SD rats); test: Water maze test of AD rats; settings: administered from 7 to 13 months of age; vs model group
male SD rats, TBI model = test: Acute traumatic brain injury (TBI) rat model; type: in vivo; settings: 80 mpk once a day, 7 days; vs solvent control (P<0.05)
Experimental: • Experimental and analytical method: male SD rats were used in this experiment to establish a TBI rat model, which was randomly divided into: a solvent control group (8 rats), a test product Embodiment 13B (80 mpk, 10 rats), and a test product Embodiment 26 (80 mpk, 9 rats). After TBI surgery, drugs were administered by gavage once a day for 7 consecutive days.

[5] = tested on: rats with ulcerative colitis induced by TNBS; test: TNBS rats enteritis model; type: in vivo, rat; settings: 80 mpk oral gavage once a day, 7 days
Experimental: All rats except the normal control group were fasted for solids (not liquids) for 24 h. After being anesthetized with isoflurane, the rats were transrectally infused with a TNBS ethanol solution (18 mg TNBS/mouse) at 0.5 mL/mouse through a latex hose, the length of the hose into the rectum was about 8 cm, an anesthesia state was continued after the hose was withdrawn, and the rats were kept in an inclined state for 15 min. The rats in the normal control group were not stimulated with rectal cannula. After the animals were awake, they were randomly divided into groups, which then began to be administrated with drugs (marked as D1). The blank group and the model group were administrated with the same amount of vehicle by oral gavage once a day for 7 consecutive days (D1-D7). The animal's status and feces (loose stools or bloody stools) were observed every day. The body weights were monitored. On the next day after the last administration (D8), the animals were deeply anesthetized with CO2, sacrificed and dissected. The entire colon tissues were harvested. The colon content was washed with normal saline after dissection along the mesenteric side. The body weights were measured and the colon lengths were measured. A ulcer surface was measured by Image J software. The general conditions of the colons were observed and photographed. Some of diseased tissues were fixed with formalin, and subjected to histopathological observation by HE staining. • Results: (1) the effects on general conditions of TNBS colitis mice were shown in FIG. 46a: the rats had loose stool on the next day of TNBS modeling; and the modeled mice had symptoms of reduced diet, tiredness, emaciation, erect hair, and dull hair. The feces of some rats were improved in the later stage of administration, but some rats still maintained loose stool until the end of the experiment, and some rats had obvious abdominal distension in the later stage of the experiment.

[6] = tested on: transgenic AD rat model (human APP mutant protein, SD rats); test: T-maze test of AD rats; type: in vivo; settings: model vs administration group
Experimental: The T-maze test had four stages: I. in an acclimatization stage, food was placed in both arms, and valves on both arms were opened. Each rat was trained twice. All rats entered the next stage after they had eaten the food on both sides within 5 min twice. II. In a forced training stage, a valve on one side was closed first, and the rats were allowed to eat the food on the opposite side. A valve on the opposite side was closed again, and the rats were allowed to eat the food on the other side. This was a training process. Each animal was trained 4 times a day for 3 days. III.
In an optional training stage, the valve on one side was closed in half first, and the rats were allowed to eat the food on the opposite side. All the valves were then closed. If the rats went to the other side, they could finish eating the food there. If the rats went to the same side, there was no food here, and they were closed on this side for 30 s. This was a training process. Each animal was trained 4 times a day until the accuracy rate exceeded 75% for 2 consecutive days and proceeded to the next stage. IV.
In a delayed optional test stage, it was basically the same as the operation of the III stage, except that interval time was added after the forced training stage and before the optional training stage. The interval time was set to 1.5 min, 3 min, and 10 min. Test was performed for 4 times at each time.

C[C@H]1CC[C@@]2(OC1)O[C@H]1C[C@@H]3[C@H](CC[C@H]4[C@H]3CC[C@@H]3C[C@H](NC(=O)CC(=O)N5CCN(CCN(C)C)CC5)CC[C@@]34C)[C@H]1[C@@H]2C [Embodiment 13b]
stride length (SOD^G93A transgenic mice [1]): much larger
inflammatory factors IL10, IL-1β and KC/GRO in aortic vascular epithelial tissue (APOE−/− mutant B6J mice): most significant
mitochondrial fragmentation after pseudovirus infection [2]: not fragmented
mean moving rate in open field (SOD^G93A transgenic mice [3]): much larger
protective effects on L-Cystine (400 μM)-induced neuronal excitotoxicity (hippocampal neurons): protective effects
average distance from the platform [4]: improved behavioral performances
dwell time in the target quadrant [4]: improved behavioral performances
number of platform shuttles [4]: improved behavioral performances
early brain apoptosis rates (male SD rats, TBI model): significantly lower
total apoptosis rates (male SD rats, TBI model): significantly lower
colon ulcer area [5]: more significant
colon weight per unit length (colon weight/colon length) [5]: more significant
working memory in delayed optional T-maze test ([6]; interval 1.5 min, administered from 7 to 15 months of age): no significant difference
working memory in delayed optional T-maze test ([6]; interval 3 min): no significant difference
working memory in delayed optional T-maze test ([6]; interval 10 min): working memory of the administration group also persisted
